# Assay results: ChEMBL document CHEMBL5604062, “ASAP - ZIKV NS2B-NS3 protease fluorescence dose response” (2024)
# Several values for one entry are separate records, joined by “and”; a condition that tells them apart may be missing. Identical values can stand only once.
# Molecular target: Nonstructural protein 3 (Zika virus, UniProt A0A024AXB9)
# Experiment: Functional biochemical assay to identify treatments for viral infectious disease that targets Zika NS2B-NS3 protease. Utilizing a direct enzyme activity measurement method, reading the fluorescence intensity is used to characterize the relative potency of inhibitors as IC50.
# Design: species or system PRVABC59
# Chain of Nonstructural protein 3 (A0A024AXB9 whole entry): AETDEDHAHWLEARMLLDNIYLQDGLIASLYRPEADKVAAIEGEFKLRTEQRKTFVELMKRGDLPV
row,Structure (SMILES),IC50
1,NCc1cccc(NC(=O)[C@@H](NC(=O)OCc2ccccc2)c2ccc(-c3ccnc4[nH]ccc34)cc2)c1,> 99.5 µM
2,CCn1cc(-c2ccc3c(c2)CCNC3)nc(N2CC[C@@H](CO)C2)c1=O,> 99.5 µM
3,CCn1cc(-c2ccccc2N)nc(N2CC[C@@H](CO)C2)c1=O,> 99.5 µM
4,c1ccc2c(CN3CCC(c4nn[nH]n4)CC3)c[nH]c2c1,> 99.5 µM
5,COC(=O)c1cc(Cl)ccc1NS(=O)(=O)c1ccc(O)cc1,> 99.5 µM
6,CCn1cc(-c2cnn(C)n2)nc(N2CC[C@@H](CO)C2)c1=O,> 99.5 µM
7,O=C(O)c1cc(Cl)cc(NS(=O)(=O)c2ccc(Oc3ccccc3Cl)cc2)c1,> 99.5 µM
8,CCn1cc(-c2ccc3ocnc3c2)nc(N2CC[C@@H](CO)C2)c1=O,> 99.5 µM
9,CCOc1cccc(N2CC[C@@H](CO)C2)c1,> 99.5 µM
10,CCn1cc(-c2cccc(-n3cccn3)c2)nc(N2CC[C@@H](CO)C2)c1=O,> 99.5 µM
11,N#Cc1cc(F)cc(N2CC[C@H](CO)C2)c1,> 99.5 µM
12,CCn1cc(-c2cccc(OC)c2F)nc(N2CC[C@@H](CO)C2)c1=O,> 99.5 µM
13,CCn1cc(-c2cnn(-c3ccccc3)c2)nc(N2CC[C@@H](CO)C2)c1=O,> 99.5 µM
14,O=C(O)c1cc(Cl)ccc1NS(=O)(=O)c1ccc(N[C@H]2CCCOC2)nc1,> 99.5 µM
15,CCn1cc(-c2cn(C)nc2C)nc(N2CC[C@@H](CO)C2)c1=O,> 99.5 µM
16,Cc1cnc(Oc2ccc(S(=O)(=O)Nc3ccc(Cl)cc3C(=O)O)cc2)cn1,> 99.5 µM
17,O=C(O)c1cc(Cl)ccc1NS(=O)(=O)c1ccc(Oc2ccccc2Cl)nc1,> 99.5 µM
18,Cc1cc(C)c(C(=O)N2C[C@H]3CN(C)CC[C@@]3(CO)C2)cc1C=O,> 99.5 µM
19,COC(=O)c1cc(Cl)ccc1NS(=O)(=O)c1ccc(Br)cc1,> 99.5 µM
20,COc1cccc(-c2ccc([C@@H](NC(=O)OCc3ccccc3)C(=O)Nc3cccc(CN)c3)cc2)c1,7.03 µM and 8.01 µM

row,Structure (SMILES),IC50
1,CN(C)C[C@@]1(O)CCN(C(=O)c2cc(C=O)c[nH]2)C1,> 99.5 µM
2,COC(=O)c1cc(Cl)ccc1NS(=O)(=O)c1ccc(Oc2ccccc2Cl)nc1,> 99.5 µM
3,COC(=O)[C@@H]1CC2(CC[C@@H]1NS(=O)(=O)c1ccc(Oc3ccccc3Cl)cc1)CC2,> 99.5 µM
4,CCn1cc(C(=O)NC)nc(N2CC[C@@H](CO)C2)c1=O,> 99.5 µM
5,NCc1cccc(NC(=O)[C@]2(NC(=O)OCc3ccccc3)CCOc3ccccc32)c1,> 99.5 µM
6,O=C(O)c1cc(Cl)ccc1NS(=O)(=O)c1ccc(N[C@H]2CCOC2)nc1,> 99.5 µM
7,CCn1cc(C2=CCCNC2)nc(N2CC[C@@H](CO)C2)c1=O,> 99.5 µM
8,NCc1cccc(NC(=O)CN2CCN(C(=O)OCc3ccccc3)CC2)c1,> 99.5 µM
9,CCn1cc(-c2ccc3nn(C)cc3c2)nc(N2CC[C@@H](CO)C2)c1=O,> 99.5 µM
10,CCn1cc(-c2cc(F)ccc2C)nc(N2CC[C@@H](CO)C2)c1=O,> 99.5 µM
11,O=C(NCc1cc(Cl)ccc1NS(=O)(=O)c1ccc(Oc2ccccc2Cl)cc1)C1CC1,> 99.5 µM
12,NCc1cccc(NC(=O)[C@H](NC(=O)OCc2ccccc2)C2CCCCC2)c1,> 99.5 µM
13,Cn1cc(-c2ccc([C@@H](NC(=O)OCc3ccccc3)C(=O)Nc3cccc(CN)c3)cc2)cn1,> 99.5 µM
14,CN(c1ncnc(-c2ccsc2C=O)n1)C1CCNCC1,98.4 µM
15,CCn1cc(-c2c[nH]c3ncccc23)nc(N2CC[C@@H](CO)C2)c1=O,> 99.5 µM
16,CCn1cc(-c2ccc(C(F)F)nc2)nc(N2CC[C@@H](CO)C2)c1=O,> 99.5 µM
17,C[C@@H](NC(=O)c1ccc2[nH]cc(C=O)c2c1)C1=CCN(C)CC1,> 99.5 µM
18,COc1ccc(COc2ccc(S(=O)(=O)Nc3ccc(Cl)cc3C(=O)O)cc2)nc1,> 99.5 µM
19,CCc1ccc(-c2cn(CC)c(=O)c(N3CC[C@@H](CO)C3)n2)s1,> 99.5 µM
20,NCc1cccc(NC(=O)[C@@H](NC(=O)OCc2ccccc2)c2ccc(-c3cncnc3)cc2)c1,> 99.5 µM

row,Structure (SMILES),IC50
1,C[C@H]1CN(C(=O)Cc2ccc(C=O)[nH]2)CCN1C1CCCC1,> 99.5 µM
2,CCn1cc(-c2cnccc2C)nc(N2CC[C@@H](CO)C2)c1=O,> 99.5 µM
3,NCc1cccc(NC(=O)[C@@H](NC(=O)OCc2ccccc2)c2cccc(OCc3cncnc3)c2)c1,> 99.5 µM
4,CCn1cc(-c2cnc3ccnn3c2)nc(N2CC[C@@H](CO)C2)c1=O,> 99.5 µM
5,O=C(O)c1cscc1NS(=O)(=O)c1ccc(Oc2ccccc2Cl)cc1,> 99.5 µM
6,O=C(O)CN(c1ccc(Cl)cc1)S(=O)(=O)c1ccc(Oc2ccccc2Cl)cc1,> 99.5 µM
7,CCn1cc(-c2ccc(CN(C)C)cc2)nc(N2CC[C@@H](CO)C2)c1=O,> 99.5 µM
8,CCn1nccc1-c1cn(CC)c(=O)c(N2CC[C@@H](CO)C2)n1,> 99.5 µM
9,O=Cc1ccc(CC(=O)N2C[C@@H](O)[C@H](N3CCOCC3)C2)cc1,> 99.5 µM
10,Cc1nccnc1Oc1ccc(S(=O)(=O)Nc2ccc(Cl)cc2C(=O)O)cc1,> 99.5 µM
11,Cc1n[nH]cc1-c1ccc([C@@H](NC(=O)OCc2ccccc2)C(=O)Nc2cccc(CN)c2)cc1,> 99.5 µM
12,NCc1cccc(NC(=O)C2(CNC(=O)OCc3ccccc3)CCCC2)c1,> 99.5 µM
13,CCn1cc(-c2cccc(-c3ccccc3)c2)nc(N2CC[C@@H](CO)C2)c1=O,> 99.5 µM
14,O=C(O)c1cc(Cl)ccc1NS(=O)(=O)c1ccc(OCc2ncccn2)cc1,> 99.5 µM
15,CCn1cc(-c2cn(C)nc2C(F)(F)F)nc(N2CC[C@@H](CO)C2)c1=O,> 99.5 µM
16,NC(=O)c1ccc(N2CC[C@@H](CO)C2)cc1,> 99.5 µM
17,O=C(NCC1CC1)[C@H]1CCCC[C@H]1NS(=O)(=O)c1ccc(Oc2ccccc2Cl)cc1,> 99.5 µM
18,CCn1cc(-c2ccncc2F)nc(N2CC[C@@H](CO)C2)c1=O,> 99.5 µM
19,CCn1cc(-c2ccccc2C(=O)OC)nc(N2CC[C@@H](CO)C2)c1=O,> 99.5 µM

# The next lines start with the values.
row,IC50,Structure (SMILES)
1,> 99.5 µM,NCc1ccc(-c2ncc(OCC3CCNCC3)nc2-c2ccc(-c3ccoc3)cc2)cc1
2,> 99.5 µM,NCc1ccc(-c2ncc(OCC3CCNCC3)nc2-c2ccc(C3CCOCC3)cc2)cc1
3,> 99.5 µM,NCc1cccc(NC(=O)[C@H](NC(=O)OCc2ccccc2)C(C2CCC2)C2CCC2)c1
4,> 99.5 µM,CN1CCN(C2CN(C(=O)c3cc(Br)cc(C=O)c3)C2)CC1
5,> 99.5 µM,CCn1cc(-c2ccnc(N(C)C)c2)nc(N2CC[C@@H](CO)C2)c1=O
6,17.9 µM,COc1ncccc1-c1ccc([C@@H](NC(=O)OCc2ccccc2)C(=O)Nc2cccc(CN)c2)cc1
7,> 99.5 µM,O=C(O)c1cc(Cl)ccc1CS(=O)(=O)c1ccc(Oc2ccccc2Cl)cc1
8,> 99.5 µM,CCn1cc(-c2ccc(OC)c(C)c2)nc(N2CC[C@@H](CO)C2)c1=O
9,> 99.5 µM,Cn1cc(Nc2ccc(S(=O)(=O)Nc3ccc(Cl)cc3C(=O)O)cn2)cn1
10,> 99.5 µM,NCc1cccc(NC(=O)[C@@H](NC(=O)OCc2ccccc2)c2ccc(-c3ccnc(N)c3)cc2)c1
11,19.5 µM,O=C(NS(=O)(=O)C1CC1)c1cc(Cl)ccc1NS(=O)(=O)c1ccc(Oc2ccccc2Cl)cc1
12,5.8 µM,CCc1ccc(-c2ccc([C@@H](NC(=O)OCc3ccccc3)C(=O)Nc3cccc(CN)c3)cc2)cc1
13,> 99.5 µM,CCn1cc(-c2cncc(OC)c2)nc(N2CC[C@@H](CO)C2)c1=O
14,> 99.5 µM,O=S(=O)(Nc1ccc(Cl)cc1CO)c1ccc(Oc2ccccc2Cl)cc1
15,> 99.5 µM,CN1CCN(C2CCN(C(=O)c3cc(C=O)n(C)c3)CC2)CC1
16,> 99.5 µM,Cn1nccc1-c1ccc([C@@H](NC(=O)OCc2ccccc2)C(=O)Nc2cccc(CN)c2)cc1
17,> 99.5 µM,CCn1cc(-c2cccc(CN(C)C)c2)nc(N2CC[C@@H](CO)C2)c1=O
18,24 µM,CC(C)c1cc(-c2ccc([C@@H](NC(=O)OCc3ccccc3)C(=O)Nc3cccc(CN)c3)cc2)on1
19,> 99.5 µM,CCn1cc(-c2ccccc2C(C)C)nc(N2CC[C@@H](CO)C2)c1=O
20,64.4 µM,NCc1cccc(NC(=O)[C@@H](NC(=O)OCc2ccccc2)c2cccc(Br)c2)c1
21,57.3 µM,Cc1noc(C)c1-c1ccc([C@@H](NC(=O)OCc2ccccc2)C(=O)Nc2cccc(CN)c2)cc1

row,IC50,Structure (SMILES)
1,3.67 µM,O=C(O)c1cc(Oc2ccc(F)cc2)c(F)cc1NS(=O)(=O)c1ccc(Oc2ccccc2Cl)cc1
2,7.81 µM,CC(C)CNC(=O)c1cc(Cl)c(F)cc1NS(=O)(=O)c1ccc(Oc2ccccc2Cl)cc1
3,7.4 µM,Cc1cccc(-c2ccc([C@@H](NC(=O)OCc3ccccc3)C(=O)Nc3cccc(CN)c3)cc2)c1
4,17.3 µM,Cc1ccc(COc2ccc(S(=O)(=O)Nc3ccc(Cl)cc3C(=O)O)cc2)cc1
5,13.1 µM,NCc1cccc(CNC(=O)[C@H](NC(=O)OCc2ccccc2)c2ccc(OCc3ccccc3)cc2)c1
6,21 µM,NCc1cccc(N2CCN(C(=O)OCc3ccccc3)[C@H](c3ccc(OCc4ccccc4)cc3)C2=O)c1
7,43.6 µM,COc1cc(Cl)cc(C(=O)O)c1NS(=O)(=O)c1ccc(Oc2ccccc2Cl)cc1
8,36.2 µM,CS(=O)(=O)NC(=O)c1cc(Cl)ccc1NS(=O)(=O)c1ccc(Oc2ccccc2Cl)cc1
9,5.83 µM,CCc1ccccc1-c1ccc([C@@H](NC(=O)OCc2ccccc2)C(=O)Nc2cccc(CN)c2)cc1
10,4.79 µM,NCc1cccc(NC(=O)c2cc(Cl)cc(NC(=O)OCc3ccccc3)c2)c1
11,10.6 µM,O=C(NCC(F)(F)F)c1cc(Cl)c(F)cc1NS(=O)(=O)c1ccc(Oc2ccccc2Cl)cc1
12,73.2 µM,NCc1cccc(NC(=O)[C@@H](NC(=O)OCc2ccccc2)c2ccc(-c3ccc(N)nc3)cc2)c1
13,27.8 µM,O=C(O)c1ccsc1NS(=O)(=O)c1ccc(Oc2ccccc2Cl)cc1
14,94.3 µM,CC1(C)CCC([C@@H](NC(=O)OCc2ccccc2)C(=O)Nc2cccc(CN)c2)CC1
15,6.81 µM,Cc1ccc(F)c(-c2ccc([C@@H](NC(=O)OCc3ccccc3)C(=O)Nc3cccc(CN)c3)cc2)c1
16,38.9 µM,NCc1cccc(NC(=O)[C@@H](NC(=O)OCc2ccccc2)c2ccc(-c3ccncc3F)cc2)c1
17,45.1 µM,NCc1cccc(NC(=O)[C@@H](NC(=O)OCc2ccccc2)c2ccc(-c3cccnc3F)cc2)c1
18,3.56 µM,NCc1cccc(NC(=O)[C@@H](NC(=O)OCc2ccccc2)c2ccc(-c3cc4cccnc4s3)cc2)c1
19,27.2 µM,COc1ccccc1-c1ccc([C@@H](NC(=O)OCc2ccccc2)C(=O)Nc2cccc(CN)c2)cc1
20,97.2 µM,CCn1cc(-c2ccc([C@@H](NC(=O)OCc3ccccc3)C(=O)Nc3cccc(CN)c3)cc2)cn1
